Results published in patent US20230192701A1, “BICYCLIC KINASE INHIBITORS AND USES THEREOF” (iOmx Therapeutics AG, priority 2020, published 2023).
pIC50: −log10 of the molar value.

Key:
[1] = Human liver microsomal stability; type: in vitro ADME; conditions: pH 7.4; human liver microsomes, NADPH, 37°C
Protocol: (§1) Briefly, human and liver microsomal stability was determined by pre-incubation of 2.5 uL compound and 75 uL of the respective liver microsomes in potassium phosphate buffer (pH 7.4) at 37° C. After adding of NADPH as cofactor and further incubation at 37° C. for 60 min, acetonitrile containing internal standard was added, and the sample was vortexed for 5 min at 1200 rpm and then centrifuged 10 min at 4000 rpm.
(§2) LC-MS/MS was performed for all assays using a C18 column (50*4.6 mm, 5 um) for the CaCo2 assay, or a C18 column (50*4.6 mm, 4 um) for the other assays. The mobile phases used were 10 mM Ammonium Acetate with 0.1% Formic acid (aqueous) and 100% Acetonitrile (organic).

[2] = Murine plasma protein binding (RED method); type: in vitro ADME; conditions: mouse
Protocol: (§3) Human and mice protein plasma binding was determined using the Plasma Protein Binding by RED Method. Briefly, 200 uL of the respective plasma containing the test compound (10 uM) was spiked into the donor well (RED Chamber) of the insert. 350 uL of PBS was spiked into receiver well (white chamber). The plate was incubated at 37° C. in a thermomixer at 400 rpm for 5 hours. The samples were matrix equilibrated with opposite matrix (25 uL blank buffet/Plasma). Matrix matched samples were precipitated with 200 uL of Acetonitrile containing Internal standard. Samples were vortexed at 1000 rpm for 5 min and centrifuged at 4000 rpm for 10 min. The supernatant was diluted 2 folds with water and % bound and unbound protein and % recovery at 5 h was determined by LC-MS/MS.
as §2

[3] = Human plasma-protein binding (RED method); type: in vitro ADME
Protocol: as §3, §2

[4] = Mouse liver microsomal stability; type: in vitro ADME; conditions: pH 7.4; mouse liver microsomes, NADPH, 37°C
Protocol: as §1, §2

[5] = Mouse hepatocyte stability; type: in vitro ADME; conditions: mouse hepatocytes, 37°C
Protocol: Determination of human and mice hepatocyte stability was conducted as follows. 200 uL of the respective hepatocyte cell suspension (2×10e6/ml) was preincubated at 37° C. for 10 min. Then, 200 uL of a 2 uM working stock of the test compound was added to the hepatocyte cell suspension, and the mixture was further incubated at 37° C. and 500 rpm. The reaction was stopped at 30, 60 and 120 min by precipitating 50 uL of the incubation mixture with 200 uL of acetonitrile. Samples were vortexed for 5 min at 1200 rpm and centrifuged at 4000 rpm for 10 min. Intrinsic clearance and half-life were analysed using LC-MS/MS.
as §2

[6] = test system: 335 wild-type protein kinases; test: single-point inhibition assays, residual activity (ProQinase Kinase Profiler); type: biochemical; conditions: single-point 0.1 uM and 1 uM, 335 kinases
Protocol: Several compounds of Formula (I) described herein were also tested in single-point (0.1 uM and 1 uM) inhibition assays over a diverse set of 335 wild-type protein (ProQinase “Kinase Profiler”; ProQinase, Freiburg, Germany), in which the residual activity of each kinase was determined. […] Secondly, the residual activity of each kinase was compared to other compounds tested (in particular, against the prior art compounds PY1) by use of scatter plots.

[7] = test system: MC38 tumour cells; test: TNF-sensitised cell viability assay (CellTiter-Glo), MC38; type: cell-based, murine; conditions: Mus musculus, MC-38, read-out: MC38 IC50 (at 100 ng/ml rMuTNF); 100 ng/ml rMuTNF, 72 h
[8] = test system: Caco-2 cells monolayer; test: CaCo2 permeability and efflux assay; type: in vitro ADME; conditions: CaCo2, apical to basal, 120 min
Protocol: (§4) To determine apparent permeability of the compounds an assay using a Caco-2 cells monolayer (cultured for 21d) in a 24-well format (poly carbonate high pore density plate with 0.4 μm pore size and a 0.7 cm2 active membrane area; Millipore) was performed as followed. 800 uL of DMEM was added to the basal compartment of the 24 well-plate and 60000 CaCo2 cells/well were seeded in the apical wells and incubated in a CO2 incubator at 37° C. for proliferation of cells. Apical to Basal permeability was determined by adding 400 uL of test compound to the apical well and 800 uL of HBSS buffer with 2% BSA to the basal well. 25 uL of basal sample was collected after 120 min and processed as stated below. Basal to Apical permeability was determined by adding 800 uL of test compound to basal well and 400 uL of HBSS buffer with 2% BSA to apical well. 25 uL of apical sample was collected after 120 min and processed as stated below. The samples were processed by diluting the donor samples 1:1 with HBSS containing 2% BSA and the receiver samples 1:1 with HBSS buffer. Samples were then precipitated with 200 uL of acetonitrile containing internal standard, vortexed for 5 min at 1000 rpm, and centrifuged at 4000 rpm for 20 min. 150 uL of supernatant was diluted with 150 uL of water and submitted for LC-MS/MS analysis, and Bi-directional (A-B and B-A) apparent permeability (Papp) was calculated.
as §2

[9] = CaCo2 permeability and efflux assay; type: in vitro ADME; conditions: human, Caco-2; CaCo2, mean efflux ratio
Protocol: as §4, §2

half-life [1]: 18 min
recovery at 5 h, 10 uM [2]: 40%
recovery at 5 h, 10 uM [3]: 32%
half-life [4]: 45 min
half-life at 1 uM [5]: 104 min
particular kinases with different inhibition than PY1 [6]: BLK, SIK3 and TEC
A > B(10 EE-06 cm/s) [8]: 10.5 10 EE-06 cm/s
efflux ratio at 120 min [9]: 2.4
Compound: COc1ccc(N2C(=O)N(c3c(C)csc3Cl)Cc3cnc(Nc4ccc(C5CCN(C)CC5)cc4OC)nc32)nc1 [AA1, 3-(2-chloro-4-methylthiophen-3-yl)-7-((2-methoxy-4-(1-methylpiperidin-4-yl)phenyl)amino)-l-(5-methoxypyridin-2-yl)-3,4-dihydropyrimido[4,5-d]pyrimidin-2(1H)-one]
overall kinase profile compared to prior art compound PY1 [6]: most similar overall kinase profile to the prior art compound PY1
pIC50 [7]: 5.82 to 6.00
